Measurements taken from US9102675B2, “3-Cyanoaryl-1H-pyrrolo[2,3-B] pyridine derivatives” (MERCK PATENT GMBH, priority 2011, dated 2015).
Like-named read-outs stand apart in the source and are kept apart here.

Legend:
TBK1 + IKKε = TBK1 + IKKε cell assay: dose response inhibition of phospho-IRF3 @ Ser 386 in MDA-MB-468 cells after poly(I:C) stimulation; type: cell-based; conditions: nuclear phospho-IRF3 Ser386, read-out: TBK1 + IKKε cell assay IC50
Description: Dose response inhibition of phospho-IRF3 @ Ser 386 cell/MDAMB468/INH/PHOS/IMAG/pIRF3
Although TBK1 and IKKε are mainly known as key substances in the innate immune response, recent findings have indicated a role for TBK1 and IKKε in Ras-induced oncogenic transformation. TBK1 was identified as RaIB effector in the Ras-like (RaI)-guanine nucleotide exchange factor (GEF) pathway that is required for Ras-induced transformation. TBK1 directly activates IRF3 which, on phosphorylation, homodimerises and translocates to the nucleus, where it activates processes associated with inflammation, immune regulation, cell survival and proliferation.
This assay has been developed in order to assess the efficacy/potency of TBK1/IKKε inhibitor compounds based on the immunocytochemical detection of nucleus-localised phospho-IRF3, a target directly downstream of TBK1. Treatment with polyinosine-polycytidylic acid (poly(I:C), a synthetic analogue of double-stranded RNA (dsRNA), a molecular pattern associated with viral infection and recognised by Toll-like receptor 3 (TLR3) is used to induce TBK1/IKKε activity and IRF3 phosphorylation at Ser386.
Day 1: MDA-MB-468 cells are detached using HyQ-Tase, counted and sown into a 384-well plate with TC surface and clear bottom in a density of 10,000 cells per well in a total volume of 35 μl of complete medium. Alternatively, the cells are sown directly from frozen glass vials.
Day 2: The cells are pre-treated with inhibitor compounds for 1 h prior to poly(I:C) stimulation. After incubation for 2 h with poly(I:C), the cells are fixed in (para)formaldehyde (PFA) and permeabilised using methanol (MeOH). The cells are then blocked and incubated with an anti-pIRF3 antibody at 4° C. overnight.
Day 3: The primary antibody is washed off, an AlexaFluor488-conjugated secondary antibody is added, the cells are contrast-stained with propidium iodide, followed by image acquisition on an IMX ultra-high content reader.
Plating medium=culture medium: • RPMI 1640, Invitrogen #31870 • 10% of FCS, Invitrogen #10270-106 • 2 mM Glutamax, Invitrogen #35050-038 • 1 mM sodium pyruvate, Invitrogen #11360 • 1% of Pen/Strep • 37° C., 5% of CO2
Plates: 384-well bottom cell culture plates with black/clear bottom, Falcon #35 3962 or Greiner #781090
Subcultivation: HyQ-Tase, Thermo Scientific (HyClone) # SV30030.01
Poly(I:C) (LMW), Invitrogen # tlrl-picw (prepare 20 mg/ml stock solution in sterile PBS, denature 30 min 55° C. in a water bath, slowly cool to RT, store at −20° C. in aliquots)
a 10-point dose-response curve with MSC2119074A-4=BX-795 is included in each experiment
Formaldehyde (methanol-free, 16%, ultrapure EM grade), Polysciences #18814 (storage RT), final conc.: 4%
Goat serum, PAA # B15-035 (storage 4° C., long term −20° C.), final conc.: 10%
BSA (IgG- and protease-free, 30%), US-Biological # A1317 (storage 4° C., long term −20° C.), final conc.: 2%
Tween 20 detergent, Calbiochem #655204 (storage RT), (prepare 10% stock solution in water; final conc.: 0.1%)
Anti-pIRF-3 rabbit mAb, Epitomics #2526-B (storage −20° C.), final conc.: 1:2000 in PBS/2% of BSA
Alexa Fluor goat-anti-rabbit-488, Invitrogen # A11034 or # A11008 (storage 4° C., dark), final conc.: 1:2000 in PBS/2% of BSA/0.1% of Tween
Propidium iodide (PI), Fluka #81845, 1 mg/ml in H2O (storage 4° C., dark), final conc.: 0.2 μg/ml
(1) Sow 10,000 cells/well/35μof complete RPMI +10% FCS into 384-well bottom cell culture plates with black / clear bottom,
(2) Incubate for 2 h at room temperature on the bench, followed by further incubation for 22 h at 37° C., 5% of CO2 and 90% RH. […]

[1] = molecular target: T1, TANK binding kinase (TBK1) (Homo sapiens, UniProt Q9UHD2); assay: TBK1 enzyme assay (384-well flashplate kinase assay); type: biochemical; conditions: 10 μM ATP, 0.6 nM TBK1
T1 sequence (Q9UHD2 1-729): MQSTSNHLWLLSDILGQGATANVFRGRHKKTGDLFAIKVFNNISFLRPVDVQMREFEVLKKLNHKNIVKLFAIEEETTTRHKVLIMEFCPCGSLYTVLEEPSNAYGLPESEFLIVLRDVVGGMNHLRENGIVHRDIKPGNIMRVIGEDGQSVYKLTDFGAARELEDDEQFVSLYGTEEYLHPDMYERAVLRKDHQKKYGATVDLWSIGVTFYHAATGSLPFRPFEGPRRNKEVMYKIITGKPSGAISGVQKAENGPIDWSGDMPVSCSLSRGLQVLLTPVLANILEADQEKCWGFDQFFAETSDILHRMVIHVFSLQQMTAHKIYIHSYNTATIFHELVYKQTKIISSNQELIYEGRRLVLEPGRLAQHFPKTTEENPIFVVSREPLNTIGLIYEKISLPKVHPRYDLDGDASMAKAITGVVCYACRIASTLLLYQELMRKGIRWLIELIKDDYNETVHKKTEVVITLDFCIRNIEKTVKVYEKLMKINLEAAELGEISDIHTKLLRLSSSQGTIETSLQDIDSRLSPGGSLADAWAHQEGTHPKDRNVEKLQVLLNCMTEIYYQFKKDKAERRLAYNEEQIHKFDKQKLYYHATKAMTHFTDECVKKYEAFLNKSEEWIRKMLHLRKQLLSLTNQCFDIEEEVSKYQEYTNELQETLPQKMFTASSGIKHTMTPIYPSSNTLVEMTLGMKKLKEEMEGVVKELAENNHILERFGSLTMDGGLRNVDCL
Protocol: Test for the Inhibition of TBK1
The kinase assay is performed as 384-well flashplate assay (for example for Topcount measurement).
0.6 nM TANK binding kinase (TBK1), 800 nM biotinylated MELK-derived peptide (biotin-Ah-Ah-[…]) and 10 μM ATP (spiked with 0.25 μCi of ^33P-ATP/well) are incubated at 30° C. for 120 min in a total volume of 50 μl (10 mM MOPS, 10 mM Mg acetate, 0.1 mM EGTA, 1 mM DTT, 0.02% of Brij35, 0.1% of BSA, pH 7.5) with or without test compound. The reaction is stopped with 25 μl of 200 mM EDTA. After 30 min at room temperature, the liquid is removed, and each well is washed three times with 100 μl of 0.9% sodium chloride solution. Non-specific reaction is measured in the presence of 100 nM staurosporine. The radioactivity is measured in a Topcount (PerkinElmer). The results (for example IC50 values) are calculated using program tools provided by the IT Department (for example Assay-Explorer, Symyx). Cell Test

[2] = Homo sapiens, MDA-MB-468, MDA-MB-468 cells

Row | IC50 (TBK1 + IKKε; [2]) [nM] | IC50 [1] [nM] | IC50 (TBK1 + IKKε; MDA-MB-468 cells) [nM] | Compound
1 | 3000 to 50000 | < 300 | – | N#Cc1cc(-c2c[nH]c3ncccc23)ccc1OC1CCOCC1 [Compound A1, 5-(1H-pyrrolo[2,3-b]pyridin-3-yl)-2-tetrahydropyran-4-yloxybenzonitrile]
2 | 300 to 3000 | < 300 | – | Cn1cc(-c2cnc3[nH]cc(-c4ccc(OC5CCOCC5)c(C#N)c4)c3c2)cn1 [Compound A4, 5-[5-(1-methylpyrazol-4-yl)-1H-pyrrolo[2,3-b]pyridin-3-yl]-2-tetrahydropyran-4-yloxybenzonitrile]
3 | 300 to 3000 | < 300 | – | N#Cc1cc(-c2c[nH]c3ncc(-c4cnn(CCN5CCOCC5)c4)cc23)ccc1OC1CCOCC1 [Compound A7, 5-[5-[1-(2-morpholinoethyl)pyrazol-4-yl]-1H-pyrrolo[2,3-b]pyridin-3-yl]-2-tetrahydropyran-4-yloxybenzonitrile]
4 | 3000 to 50000 | < 300 | – | N#Cc1cc(-c2c[nH]c3ncc(-c4ccc(N5CCOCC5)cc4)cc23)ccc1OC1CCOCC1 [Compound A8, 5-[5-(4-morpholinophenyl)-1H-pyrrolo[2,3-b]pyridin-3-yl]-2-tetrahydropyran-4-yloxybenzonitrile]
5 | 300 to 3000 | < 300 | – | N#Cc1cc(-c2c[nH]c3ncc(-c4cnn(CCN5CCCC5)c4)cc23)ccc1OC1CCOCC1 [Compound A9, 5-[5-[1-(2-pyrrolidin-1-ylethyl)pyrazol-4-yl]-1H-pyrrolo[2,3-b]pyridin-3-yl]-2-tetrahydropyran-4-yloxybenzonitrile]
6 | < 300 | < 300 | – | COCCn1cc(-c2cnc3[nH]cc(-c4ccc(OC5CCOCC5)c(C#N)c4)c3c2)cn1 [Compound A10, 5-[5-[1-(2-methoxyethyl)pyrazol-4-yl]-1H-pyrrolo[2,3-b]pyridin-3-yl]-2-tetrahydropyran-4-yloxybenzonitrile]
7 | 300 to 3000 | < 300 | – | N#Cc1cc(-c2c[nH]c3ncc(-c4cnn(C5CCNCC5)c4)cc23)ccc1OC1CCOCC1 [Compound A12, 5-[5-(1-piperidin-4-yl-1H-pyrazol-4-yl)-1H-pyrrolo[2,3-b]pyridin-3-yl]-2-(tetrahydropyran-4-yloxy)benzonitrile]
8 | 3000 to 50000 | < 300 | – | CN1CCC(Oc2ccc(-c3c[nH]c4ncc(-c5cnn(C)c5)cc34)cc2C#N)CC1 [Compound A13, 2-(1-methylpiperidin-4-yloxy)-5-[5-(1-methyl-1H-pyrazol-4-yl)-1H-pyrrolo[2,3-b]pyridin-3-yl]benzonitrile]
9 | < 300 | < 300 | – | N#Cc1cc(-c2c[nH]c3ncc(-c4cnn(CCO)c4)cc23)ccc1OC1CCOCC1 [Compound A15, 5-[5-[1-(2-hydroxyethyl)pyrazol-4-yl]-1H-pyrrolo[2,3-b]pyridin-3-yl]-2-tetrahydropyran-4-yloxybenzonitrile]
10 | < 300 | < 300 | – | CN1CCC(n2cc(-c3cnc4[nH]cc(-c5ccc(OC6CCOCC6)c(C#N)c5)c4c3)cn2)CC1 [Compound A16, 5-[5-[1-(1-methyl-4-piperidyl)pyrazol-4-yl]-1H-pyrrolo[2,3-b]pyridin-3-yl]-2-tetrahydropyran-4-yloxybenzonitrile]
11 | 3000 to 50000 | 300 to 3000 | – | CN1CCN(c2cnc3[nH]cc(-c4ccc(OC5CCOCC5)c(C#N)c4)c3c2)CC1 [Compound A17, 5-[5-(4-methylpiperazin-1-yl)-1H-pyrrolo[2,3-b]pyridin-3-yl]-2-tetrahydropyran-4-yloxybenzonitrile]
12 | 300 to 3000 | < 300 | – | N#Cc1cc(-c2c[nH]c3ncc(-c4cnn(C5CCNCC5)c4)cc23)cnc1OC1CCOCC1 [Compound A18, 5-[5-[1-(4-piperidyl)pyrazol-4-yl]-1H-pyrrolo[2,3-b]pyridin-3-yl]-2-tetrahydropyran-4-yloxypyridine-3-carbonitrile]
13 | – | < 300 | 300 to 3000 | CN1CCC(n2cc(-c3cnc4[nH]cc(-c5ccc(OC6CCOCC6)c(C#N)c5)c4c3)cn2)CC1 [Compound A20, 5-[5-[1-(1-methyl-4-piperidyl)pyrazol-4-yl]-1H-pyrrolo[2,3-b]pyridin-3-yl]-2-tetrahydropyran-4-yloxybenzonitrile]
14 | 300 to 3000 | < 300 | – | N#Cc1cc(-c2c[nH]c3ncc(OCCN4CCOCC4)cc23)ccc1OC1CCOCC1 [Compound A21, 5-[5-(2-morpholinoethoxy)-1H-pyrrolo[2,3-b]pyridin-3-yl]-2-tetrahydropyran-4-yloxybenzonitrile]
15 | – | < 300 | 300 to 3000 | N#Cc1cc(-c2c[nH]c3ncc(-c4cn(C5CCNCC5)nn4)cc23)ccc1OC1CCOCC1 [Compound A22, 5-[5-[1-(4-piperidyl)triazol-4-yl]-1H-pyrrolo[2,3-b]pyridin-3-yl]-2-tetrahydropyran-4-yloxybenzonitrile]
16 | – | < 300 | 300 to 3000 | CN1CCC(n2cc(-c3cnc4[nH]cc(-c5ccc(OC6CCOCC6)c(C#N)c5)c4c3)nn2)CC1 [Compound A23, 5-[5-[1-(1-methyl-4-piperidyl)triazol-4-yl]-1H-pyrrolo[2,3-b]pyridin-3-yl]-2-tetrahydropyran-4-yloxybenzonitrile]
17 | 300 to 3000 | < 300 | – | CC1(COc2ccc(-c3c[nH]c4ncc(-c5cnn(C6CCNCC6)c5)cc34)cc2C#N)COC1 [Compound A24, 2-[(3-Methyloxetan-3-yl)methoxy]-5-[5-[1-(4-piperidyl)pyrazol-4-yl]-1H-pyrrolo[2,3-b]pyridin-3-yl]-benzonitrile]
